Measured values published in PubChem BioAssay AID1963981 (Molecular Pharmacology Branch, DTP, NCI, 2024).

System: 354836-022-R-J1-PDC multicell spheroid viability
Assay: Anticancer human tumor 354836-022-R-J1-PDC patient-derived head and neck squamous cell carcinoma cell line growth inhibition [PI3K]
Conditions: for IC50: curve of first compound; for viability, T/C: stronger effect = lower value
How it was run: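 Targeted small molecules plus PI3K inhibitors, half-log dose series from Cmax (default top 10 microM), were applied to heterotypic spheroids of cancer cells with HUVEC and MSCs. Viability indicated growth inhibition.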

[1] = second compound 0.0316 µM, first compound 0.0316 µM
[2] = second compound 0.0316 µM, first compound 0.1 µM
[3] = second compound 0.0316 µM, first compound 0.316 µM
[4] = second compound 0.0316 µM, first compound 1 µM
[5] = second compound 0.0316 µM, first compound 3.16 µM
[6] = second compound 0.0316 µM, first compound 10 µM
[7] = second compound 0.1 µM, first compound 0.0316 µM
[8] = second compound 0.1 µM, first compound 0.1 µM
[9] = second compound 0.1 µM, first compound 0.316 µM
[10] = second compound 0.1 µM, first compound 1 µM
[11] = second compound 0.1 µM, first compound 3.16 µM
[12] = second compound 0.1 µM, first compound 10 µM
[13] = second compound 0.316 µM, first compound 0.0316 µM
[14] = second compound 0.316 µM, first compound 0.1 µM
[15] = second compound 0.316 µM, first compound 0.316 µM
[16] = second compound 0.316 µM, first compound 1 µM
[17] = second compound 0.316 µM, first compound 3.16 µM
[18] = second compound 0.316 µM, first compound 10 µM
[19] = second compound 1 µM, first compound 0.0316 µM
[20] = second compound 1 µM, first compound 0.1 µM
[21] = second compound 1 µM, first compound 0.316 µM
[22] = second compound 1 µM, first compound 1 µM
[23] = second compound 1 µM, first compound 3.16 µM
[24] = second compound 1 µM, first compound 10 µM
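Note: spheroids exposed to agents for seven days before the viability read.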

SMILES: C[C@@H](NC(=O)c1ncnc(N)c1Cl)c1ncc(C(=O)Nc2cc(C(F)(F)F)c(Cl)cn2)s1 + COc1c(OCCCN2CCOCC2)ccc2c3n(c(=NC(=O)c4cnc(N)nc4)nc12)CCN3
- IC50 (second compound 0.00316 µM): > 10 µM
- IC50 (second compound 0.01 µM): > 10 µM
- IC50 (second compound 0.0316 µM): > 10 µM
- IC50 (second compound 0.1 µM): > 10 µM
- IC50 (second compound 0.316 µM): < 0.0316 µM
- IC50 (second compound 1 µM): < 0.0316 µM
- viability, T/C (second compound 0.00316 µM, first compound 0.0316 µM): 91.8%
- viability, T/C (second compound 0.00316 µM, first compound 0.1 µM): 112%
- viability, T/C (second compound 0.00316 µM, first compound 0.316 µM): 96.9%
- viability, T/C (second compound 0.00316 µM, first compound 1 µM): 109%
- viability, T/C (second compound 0.00316 µM, first compound 3.16 µM): 98.5%
- viability, T/C (second compound 0.00316 µM, first compound 10 µM): 97%
- viability, T/C (second compound 0.01 µM, first compound 0.0316 µM): 105%
- viability, T/C (second compound 0.01 µM, first compound 0.1 µM): 101%
- viability, T/C (second compound 0.01 µM, first compound 0.316 µM): 96.5%
- viability, T/C (second compound 0.01 µM, first compound 1 µM): 119%
- viability, T/C (second compound 0.01 µM, first compound 3.16 µM): 102%
- viability, T/C (second compound 0.01 µM, first compound 10 µM): 78.1%
- viability, T/C [1]: 76%
- viability, T/C [2]: 81.8%
- viability, T/C [3]: 86.5%
- viability, T/C [4]: 86.9%
- viability, T/C [5]: 84.2%
- viability, T/C [6]: 71.5%
- viability, T/C [7]: 58.2%
- viability, T/C [8]: 43.7%
- viability, T/C [9]: 55.6%
- viability, T/C [10]: 55%
- viability, T/C [11]: 55.1%
- viability, T/C [12]: 47.9%
- viability, T/C [13]: 11.2%
- viability, T/C [14]: 14.4%
- viability, T/C [15]: 13.4%
- viability, T/C [16]: 18%
- viability, T/C [17]: 24.4%
- viability, T/C [18]: 9.94%
- viability, T/C [19]: 2.2%
- viability, T/C [20]: 1.73%
- viability, T/C [21]: 1.92%
- viability, T/C [22]: 1.84%
- viability, T/C [23]: 2.33%
- viability, T/C [24]: 1.65%

SMILES: CC1(C)CCC(Nc2ncc(C(F)(F)F)c(-c3c[nH]c4c(P(C)(C)=O)c(C#N)ccc34)n2)CN1 (centres undefined) + CC(Nc1ncnc2nc[nH]c12)c1cc2cccc(Cl)c2c(=O)n1-c1ccccc1
- IC50 (second compound 0.0316 µM): < 0.0316 µM
- IC50 (second compound 0.1 µM): < 0.0316 µM
- IC50 (second compound 0.316 µM): < 0.0316 µM
- IC50 (second compound 1 µM): < 0.0316 µM
- IC50 (second compound 3.16 µM): < 0.0316 µM
- IC50 (second compound 10 µM): < 0.0316 µM
- viability, T/C [1]: 13.4%
- viability, T/C [2]: 10.9%
- viability, T/C [3]: 15.2%
- viability, T/C [4]: 12.4%
- viability, T/C [5]: 13.8%
- viability, T/C [6]: 1.65%
- viability, T/C [7]: 12.6%
- viability, T/C [8]: 13.2%
- viability, T/C [9]: 15.7%
- viability, T/C [10]: 16%
- viability, T/C [11]: 16.1%
- viability, T/C [12]: 2.44%
- viability, T/C [13]: 11.3%
- viability, T/C [14]: 13.9%
- viability, T/C [15]: 12.4%
- viability, T/C [16]: 14.8%
- viability, T/C [17]: 14%
- viability, T/C [18]: 2.31%
- viability, T/C [19]: 12.3%
- viability, T/C [20]: 13.2%
- viability, T/C [21]: 14%
- viability, T/C [22]: 14.3%
- viability, T/C [23]: 16.8%
- viability, T/C [24]: 1.85%
- viability, T/C (second compound 3.16 µM, first compound 0.0316 µM): 10.7%
- viability, T/C (second compound 3.16 µM, first compound 0.1 µM): 13.8%
- viability, T/C (second compound 3.16 µM, first compound 0.316 µM): 13.7%
- viability, T/C (second compound 3.16 µM, first compound 1 µM): 15%
- viability, T/C (second compound 3.16 µM, first compound 3.16 µM): 16%
- viability, T/C (second compound 3.16 µM, first compound 10 µM): 1.2%
- viability, T/C (second compound 10 µM, first compound 0.0316 µM): 17%
- viability, T/C (second compound 10 µM, first compound 0.1 µM): 16.9%
- viability, T/C (second compound 10 µM, first compound 0.316 µM): 14.9%
- viability, T/C (second compound 10 µM, first compound 1 µM): 21.3%
- viability, T/C (second compound 10 µM, first compound 3.16 µM): 16.8%
- viability, T/C (second compound 10 µM, first compound 10 µM): 0.91%
